From article PMC9574867, “Discovery and Characterization of Synthesized and FDA-Approved Inhibitors of Clostridial and Bacillary Collagenases” (Journal of Medicinal Chemistry, 2022)
Values after ≈ are worked out from the molar mass of the structure shown. “Also recorded” adds a separate entry of the source.

Experiments:
MMP-8 = target: MMP-8; set-up: method as in PMID 22529049, PMID 12217351, PMID 12217351; conditions: known inhibitors, Figure 1a; cited from earlier work
MMP-1 = target: T1, MMP-1 (Homo sapiens, UniProt P03956); test: MMP inhibition assay, MMP-1; assay type: biochemical
T1 construct: catalytic domains of three human MMPs; purchased Sigma-Aldrich
T1 sequence (P03956 98-276 limits assumed): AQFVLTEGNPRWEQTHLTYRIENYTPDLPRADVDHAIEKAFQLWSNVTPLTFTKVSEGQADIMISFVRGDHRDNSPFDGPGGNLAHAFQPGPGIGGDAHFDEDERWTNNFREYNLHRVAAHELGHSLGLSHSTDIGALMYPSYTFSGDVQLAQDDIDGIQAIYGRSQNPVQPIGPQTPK
Protocol: (§1) To assess the selectivity of the compounds over human MMPs and on other bacterial collagenases, selected compounds were tested against ColG-CU and ColH-PD from C. histolyticum and ColA-CU from B. cereus strain ATCC14579. In addition, the compounds were tested on catalytic domains of three human MMPs, which are characterized by different depths of the S1′ binding pocket (MMP-1 (shallow), −2 (intermediate), and −3 (deep)). They were also tested against other important human off-targets, which are involved in gene expression and the processing of TNF-α; these include HDAC-3, -8, TACE (ADAM-17),[33],[34] and COX-1.
(§2) The MMP inhibition assay (Sigma-Aldrich, Saint Louise, MO) was performed as previously reported and in accordance with the manufacturer’s instructions. The fluorescence signals were measured in a CLARIOstar plate reader (BMG LABTECH, Ortenberg, Germany) at a concentration of 100 μM.

in vitro [1] = conditions: human, HEK293 cells (embryonal kidney)
ColQ1-CU [2] = target: T2, ColQ1-CU (Bacillus cereus, UniProt B9J3S4); assay type: biochemical, B. cereus; conditions: rapid dilution
T2 sequence (B9J3S4 94-765 limits assumed): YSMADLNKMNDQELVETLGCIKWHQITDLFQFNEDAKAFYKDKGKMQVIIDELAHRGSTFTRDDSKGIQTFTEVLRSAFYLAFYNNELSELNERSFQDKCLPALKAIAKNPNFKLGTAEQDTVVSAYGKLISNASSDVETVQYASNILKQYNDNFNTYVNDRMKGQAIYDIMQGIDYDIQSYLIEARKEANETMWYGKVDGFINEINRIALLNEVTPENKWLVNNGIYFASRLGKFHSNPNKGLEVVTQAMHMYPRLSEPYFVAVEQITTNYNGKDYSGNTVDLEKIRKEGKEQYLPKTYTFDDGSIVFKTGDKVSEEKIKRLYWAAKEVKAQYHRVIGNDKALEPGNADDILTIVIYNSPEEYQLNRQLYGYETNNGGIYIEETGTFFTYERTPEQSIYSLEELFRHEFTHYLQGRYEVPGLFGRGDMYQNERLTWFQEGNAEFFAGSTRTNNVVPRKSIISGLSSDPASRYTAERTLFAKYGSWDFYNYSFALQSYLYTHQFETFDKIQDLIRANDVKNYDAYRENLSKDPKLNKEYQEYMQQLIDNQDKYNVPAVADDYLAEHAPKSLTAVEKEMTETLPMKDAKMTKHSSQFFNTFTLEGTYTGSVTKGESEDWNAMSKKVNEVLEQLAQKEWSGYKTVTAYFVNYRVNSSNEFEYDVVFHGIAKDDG

ColA-CU [3] = target: T3, ColA-CU (Bacillus cereus, UniProt Q81BJ6); assay type: biochemical, B. cereus; conditions: rapid dilution
T3 sequence (Q81BJ6 93-764): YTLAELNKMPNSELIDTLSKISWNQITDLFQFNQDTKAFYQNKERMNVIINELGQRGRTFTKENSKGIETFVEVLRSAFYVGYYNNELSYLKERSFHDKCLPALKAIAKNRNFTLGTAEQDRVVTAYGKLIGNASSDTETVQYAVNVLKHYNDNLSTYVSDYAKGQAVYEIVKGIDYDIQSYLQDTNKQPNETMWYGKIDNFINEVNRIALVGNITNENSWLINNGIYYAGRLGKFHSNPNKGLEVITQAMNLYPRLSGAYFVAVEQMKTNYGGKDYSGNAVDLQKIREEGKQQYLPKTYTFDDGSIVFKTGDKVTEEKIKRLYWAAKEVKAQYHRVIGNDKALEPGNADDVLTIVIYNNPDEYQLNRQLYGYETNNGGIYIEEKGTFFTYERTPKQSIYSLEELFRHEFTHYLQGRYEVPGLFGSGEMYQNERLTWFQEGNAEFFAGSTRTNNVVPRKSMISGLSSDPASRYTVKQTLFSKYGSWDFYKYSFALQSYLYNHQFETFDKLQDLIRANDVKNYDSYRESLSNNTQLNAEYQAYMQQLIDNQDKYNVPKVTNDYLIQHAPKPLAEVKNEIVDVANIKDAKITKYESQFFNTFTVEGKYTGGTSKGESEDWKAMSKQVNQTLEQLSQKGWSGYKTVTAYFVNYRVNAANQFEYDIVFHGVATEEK

ColA-CU [4] = target: T3, ColA-CU; test: biochemical; assay type: biochemical, B. cereus strain ATCC14579
in vitro [5] = conditions: dog, MDCK II cells (Madin–Darby canine kidney II)
ColG-CU = ColG-CU (Hathewaya histolytica, UniProt Q9X721); test: biochemical; assay type: biochemical, C. histolyticum
ColG-CU, sequence (Q9X721 111-786): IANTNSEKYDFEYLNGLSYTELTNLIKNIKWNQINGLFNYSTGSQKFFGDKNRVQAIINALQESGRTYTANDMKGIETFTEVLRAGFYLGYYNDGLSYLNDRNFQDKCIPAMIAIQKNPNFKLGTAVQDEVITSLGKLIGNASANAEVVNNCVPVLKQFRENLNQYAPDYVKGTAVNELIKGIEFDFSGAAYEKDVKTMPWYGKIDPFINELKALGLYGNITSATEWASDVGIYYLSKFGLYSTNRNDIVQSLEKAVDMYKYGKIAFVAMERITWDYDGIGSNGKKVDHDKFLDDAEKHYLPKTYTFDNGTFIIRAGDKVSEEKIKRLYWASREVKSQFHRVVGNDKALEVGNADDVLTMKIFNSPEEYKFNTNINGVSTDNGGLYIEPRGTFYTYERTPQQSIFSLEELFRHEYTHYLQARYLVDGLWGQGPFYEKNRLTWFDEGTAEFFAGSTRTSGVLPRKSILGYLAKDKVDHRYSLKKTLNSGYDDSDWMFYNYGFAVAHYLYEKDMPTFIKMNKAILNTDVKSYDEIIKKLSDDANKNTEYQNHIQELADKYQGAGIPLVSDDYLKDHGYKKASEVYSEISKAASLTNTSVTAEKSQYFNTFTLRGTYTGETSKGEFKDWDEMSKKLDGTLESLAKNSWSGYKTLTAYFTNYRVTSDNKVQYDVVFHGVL

HDAC-3 = HDAC-3 (Homo sapiens, UniProt O15379); test: Human off-target inhibition, HDAC-3; assay type: biochemical
HDAC-3, sequence (O15379 whole entry): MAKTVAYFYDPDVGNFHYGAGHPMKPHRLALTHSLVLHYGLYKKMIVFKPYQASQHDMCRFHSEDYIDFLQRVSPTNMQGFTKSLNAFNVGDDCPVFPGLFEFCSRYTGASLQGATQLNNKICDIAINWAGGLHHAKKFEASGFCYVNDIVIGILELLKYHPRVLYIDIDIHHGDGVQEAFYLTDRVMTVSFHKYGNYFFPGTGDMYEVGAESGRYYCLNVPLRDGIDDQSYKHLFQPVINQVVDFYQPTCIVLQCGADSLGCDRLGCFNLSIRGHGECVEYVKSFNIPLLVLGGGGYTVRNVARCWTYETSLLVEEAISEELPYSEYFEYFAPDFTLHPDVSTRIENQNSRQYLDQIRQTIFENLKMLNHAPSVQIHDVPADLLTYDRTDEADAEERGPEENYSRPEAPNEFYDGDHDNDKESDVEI
HDAC-3, sequence (Q9Y618 395-489 partner limits assumed): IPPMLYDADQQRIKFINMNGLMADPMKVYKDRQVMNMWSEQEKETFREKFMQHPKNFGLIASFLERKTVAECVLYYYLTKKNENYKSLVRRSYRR
Protocol: as §1

ColQ1-CU [6] = target: T2, ColQ1-CU; test: biochemical; set-up: species or system B. cereus strain Q1
in vitro [7] = conditions: human, NHDF cells (normal human dermal fibroblasts)
HDAC-8 = target: T4, HDAC-8 (Homo sapiens, UniProt Q9BY41); test: Human off-target inhibition, HDAC-8; assay type: biochemical
T4 sequence (Q9BY41 1-377): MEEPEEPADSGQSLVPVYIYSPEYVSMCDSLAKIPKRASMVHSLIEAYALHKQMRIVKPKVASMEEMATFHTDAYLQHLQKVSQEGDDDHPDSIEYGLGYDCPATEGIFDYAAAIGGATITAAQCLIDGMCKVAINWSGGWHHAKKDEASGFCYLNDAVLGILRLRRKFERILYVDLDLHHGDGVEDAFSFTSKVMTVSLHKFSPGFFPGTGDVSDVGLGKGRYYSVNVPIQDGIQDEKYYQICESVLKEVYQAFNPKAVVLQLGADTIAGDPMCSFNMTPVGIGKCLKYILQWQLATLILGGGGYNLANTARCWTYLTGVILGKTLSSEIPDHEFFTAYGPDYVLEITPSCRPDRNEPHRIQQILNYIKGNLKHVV
Protocol: as §1

B. cereus AH187 = test: B. cereus growth inhibition assay; assay type: cell-based; conditions: Bacillus cereus, AH187; BHI medium, 37 °C, 48 h, 200–3 μM; read-out: MIC50 (µM) AH187
[8] = tested on: NHDF cells infected with B. cereus; test: NHDF infection model, cell morphology/attachment and fibrillar collagen (picrosirius red); assay type: cell-based, human; conditions: B. cereus infection, 5 h
MMP-3 = target: T5, MMP-3 (Homo sapiens, UniProt P08254); test: MMP inhibition assay, MMP-3; assay type: biochemical
T5 construct: catalytic domains of three human MMPs; purchased Sigma-Aldrich
T5 sequence (P08254 100-272 limits assumed): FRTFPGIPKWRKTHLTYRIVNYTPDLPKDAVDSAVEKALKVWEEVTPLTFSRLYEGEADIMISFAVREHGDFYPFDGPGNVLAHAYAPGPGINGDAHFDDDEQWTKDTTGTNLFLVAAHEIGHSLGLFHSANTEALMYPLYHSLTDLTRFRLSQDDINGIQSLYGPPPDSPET
Protocol: as §1, §2

ColH-PD [9] = target: T6, ColH-PD (Hathewaya histolytica, UniProt Q46085); assay type: biochemical, C. histolyticum
T6 sequence (Q46085 331-721 limits assumed): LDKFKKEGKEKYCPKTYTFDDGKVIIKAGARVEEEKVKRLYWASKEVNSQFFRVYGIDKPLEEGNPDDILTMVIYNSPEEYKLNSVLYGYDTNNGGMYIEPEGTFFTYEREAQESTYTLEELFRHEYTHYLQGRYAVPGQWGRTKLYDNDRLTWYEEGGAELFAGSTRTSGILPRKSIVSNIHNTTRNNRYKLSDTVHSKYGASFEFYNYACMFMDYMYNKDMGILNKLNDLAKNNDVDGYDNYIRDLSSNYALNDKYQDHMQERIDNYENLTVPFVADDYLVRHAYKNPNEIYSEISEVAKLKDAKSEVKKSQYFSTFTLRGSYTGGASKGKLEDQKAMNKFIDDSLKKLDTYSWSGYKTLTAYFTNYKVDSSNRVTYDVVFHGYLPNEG

[10] = tested on: B. cereus collagenases released in the NHDF infection model; assay type: cell-based, B. cereus AH187
TACE (ADAM-17) = TACE (ADAM-17) (Homo sapiens, UniProt P78536); test: Human off-target inhibition, TACE; assay type: biochemical
TACE (ADAM-17), sequence (P78536 215-824): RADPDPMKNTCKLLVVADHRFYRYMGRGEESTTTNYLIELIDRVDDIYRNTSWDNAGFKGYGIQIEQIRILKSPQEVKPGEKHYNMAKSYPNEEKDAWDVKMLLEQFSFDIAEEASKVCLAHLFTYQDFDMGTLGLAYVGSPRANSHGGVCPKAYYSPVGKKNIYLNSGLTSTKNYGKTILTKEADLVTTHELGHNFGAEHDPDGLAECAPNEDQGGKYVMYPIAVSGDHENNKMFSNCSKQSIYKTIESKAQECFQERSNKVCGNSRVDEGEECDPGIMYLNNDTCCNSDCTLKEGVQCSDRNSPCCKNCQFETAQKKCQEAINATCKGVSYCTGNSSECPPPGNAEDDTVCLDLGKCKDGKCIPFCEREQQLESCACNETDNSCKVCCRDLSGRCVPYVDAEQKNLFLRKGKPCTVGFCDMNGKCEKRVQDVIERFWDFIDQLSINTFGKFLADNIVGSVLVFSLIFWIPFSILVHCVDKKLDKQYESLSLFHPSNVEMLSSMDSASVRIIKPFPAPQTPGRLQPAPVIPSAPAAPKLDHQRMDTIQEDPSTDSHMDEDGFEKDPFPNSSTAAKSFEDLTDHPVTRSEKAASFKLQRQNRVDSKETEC
Protocol: as §1

in vitro [11] = conditions: human, HepG2 cells (hepatocellular carcinoma)
[12] = Stability of 27 with LC-MS in DMEM medium; assay type: physicochemical; conditions: 200 μM in DMEM, 37 °C, 5 h, 5% CO2, LC-MS
Protocol: We also examined the hydroxamate compounds 27, 28, 29, 31, 32, and 33. […] Intrigued by the results of the hydroxamate compounds, we investigated their stability with LC-MS in the conditions of the NHDF infection model to obtain a potential explanation for the observed findings. We used 27 as a representative example for this compound class.
After the incubation, 2 μL of the compound was transferred to LC-MS vials containing 200 μL of acetonitrile and LC-MS spectra were measured. Three controls were included: (i) 27 in DMEO, (ii) 27 in DMEM without incubation, and (iii) DMEM medium.

ColH-PD [13] = target: T6, ColH-PD; test: biochemical; assay type: biochemical, C. histolyticum
ColQ1-FL = ColQ1-FL (Bacillus cereus, UniProt B9J3S4); assay type: biochemical; conditions: 1 mg/mL Col I, 50 ng ColQ1-FL, SDS-PAGE
ColQ1-FL, sequence (B9J3S4 94-965 limits assumed): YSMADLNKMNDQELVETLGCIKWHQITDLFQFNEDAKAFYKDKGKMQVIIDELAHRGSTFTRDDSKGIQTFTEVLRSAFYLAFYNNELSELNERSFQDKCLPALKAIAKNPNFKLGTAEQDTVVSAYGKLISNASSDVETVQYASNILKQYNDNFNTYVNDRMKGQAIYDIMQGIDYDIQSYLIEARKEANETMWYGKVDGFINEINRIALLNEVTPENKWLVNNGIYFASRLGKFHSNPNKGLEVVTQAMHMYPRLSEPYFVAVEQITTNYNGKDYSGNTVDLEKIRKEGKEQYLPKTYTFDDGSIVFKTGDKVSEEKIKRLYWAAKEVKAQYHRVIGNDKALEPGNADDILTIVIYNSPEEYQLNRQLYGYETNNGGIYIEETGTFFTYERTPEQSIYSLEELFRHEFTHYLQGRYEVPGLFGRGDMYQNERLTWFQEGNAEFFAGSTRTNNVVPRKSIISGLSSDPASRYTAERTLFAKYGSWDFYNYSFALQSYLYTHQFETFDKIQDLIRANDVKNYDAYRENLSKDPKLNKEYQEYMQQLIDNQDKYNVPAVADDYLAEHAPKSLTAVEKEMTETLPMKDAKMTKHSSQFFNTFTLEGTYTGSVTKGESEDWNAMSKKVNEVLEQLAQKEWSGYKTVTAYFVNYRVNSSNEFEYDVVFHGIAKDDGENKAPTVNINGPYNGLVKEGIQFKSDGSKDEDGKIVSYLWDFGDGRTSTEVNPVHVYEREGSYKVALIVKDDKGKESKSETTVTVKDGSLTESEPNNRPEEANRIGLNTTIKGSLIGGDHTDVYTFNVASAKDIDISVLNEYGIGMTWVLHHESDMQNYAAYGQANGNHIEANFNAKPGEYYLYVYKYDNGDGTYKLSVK

MMP-2 = target: T7, MMP-2 (Homo sapiens, UniProt P08253); test: MMP inhibition assay, MMP-2; assay type: biochemical
T7 construct: catalytic domains of three human MMPs; purchased Sigma-Aldrich
T7 sequence (P08253 110-444 limits assumed): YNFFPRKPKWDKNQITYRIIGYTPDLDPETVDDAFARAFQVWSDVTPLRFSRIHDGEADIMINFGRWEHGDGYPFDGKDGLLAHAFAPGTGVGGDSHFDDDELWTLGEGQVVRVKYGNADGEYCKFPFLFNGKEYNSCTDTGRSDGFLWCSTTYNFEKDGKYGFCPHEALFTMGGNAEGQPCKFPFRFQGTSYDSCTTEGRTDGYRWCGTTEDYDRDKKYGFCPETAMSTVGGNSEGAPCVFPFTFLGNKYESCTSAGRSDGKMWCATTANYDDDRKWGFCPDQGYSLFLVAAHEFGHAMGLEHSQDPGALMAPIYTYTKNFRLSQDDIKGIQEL
Protocol: as §1, §2

CC(NC(=O)C(Cc1ccccc1)NC(=O)NS(=O)(=O)c1ccc(F)cc1)C(=O)Nc1nnc(S)s1 (stereo not shown) [Compound 3]
Ki (MMP-8): 0.1 µM

CC(=O)Nc1ccccc1OCc1cn(CCNC(=O)C(CC(C)C)C(=O)NO)nn1 (stereo not shown) [Compound 27, N-[2-[4-[(2-Acetamidophenoxy)methyl]triazol-1-yl]ethyl]-2-(hydroxycarbamoyl)-4-methyl-pentanamide]
IC50 (MMP-1): > 100 µM | IC50 (in vitro [1]): > 100 µM | Reversibility of inhibition, ColQ1-CU (ColQ1-CU [2]): rapidly reversible inhibitors | Reversibility of inhibition, ColA-CU (ColA-CU [3]): rapidly reversible inhibitors | Ki (ColA-CU [4]): 3.4 ± 4 µM | inhibition at 100 µM (ColA-CU [4]; 100 μM, read-out: Percent inhibition of ColA-CU): 93 ± 2% | IC50 (in vitro [5]): > 200 µM | Ki (ColG-CU): 31 ± 1 µM | inhibition at 100 µM (ColG-CU; 100 μM, read-out: Percent inhibition of ColG-CU): 71 ± 7% | IC50 (HDAC-3): > 100 µM | IC50 (ColQ1-CU [6]): 1.2 ± 0.1 µM | Ki (ColQ1-CU [6]): 0.1 ± 0.02 µM | inhibition at 100 µM (ColQ1-CU [6]; read-out: % Inhibition (ColQ1-CU) Mean): 97 ± 2% | IC50 (in vitro [7]): > 200 µM | IC50 (HDAC-8): > 100 µM | MIC50 (B. cereus AH187): 200 µM (≈ 86.5 µg/mL) | Effect on cell morphology and ECM collagen content of infected NHDF cells [8]: neither able to rescue cell morphology nor able to maintain the collagen content of the ECM | IC50 (MMP-3): > 100 µM | Reversibility of inhibition, ColH (ColH-PD [9]): rapidly reversible inhibitors | Inhibitory effect on gelatinolytic activity of secreted collagenases [10]: no inhibitory effect on the collagenase in the zymography at all tested concentrations; also recorded: no inhibition of the collagenase in the gelatin zymography was detected | IC50 (TACE (ADAM-17)): > 100 µM | IC50 (in vitro [11]): > 100 µM | Stability under NHDF infection assay conditions [12]: no compound degradation; also recorded: confirmed, however, the stability | Ki (ColH-PD [13]): 11.6 ± 0.4 µM | inhibition at 100 µM (ColH-PD [13]; 100 μM, read-out: Percent inhibition of ColH-PD): 84 ± 2% | Concentration above which Col I chains were maintained (ColQ1-FL): > 0.8 µM | IC50 (MMP-2): > 100 µM
